Data set [1] deals with T1, BCRP (Homo sapiens, UniProt Q9UNQ0).
T1 construct: made in house; host or cells: membrane vesicles from HEK293 cells expressing the transporter
T1 sequence (Q9UNQ0 1-655): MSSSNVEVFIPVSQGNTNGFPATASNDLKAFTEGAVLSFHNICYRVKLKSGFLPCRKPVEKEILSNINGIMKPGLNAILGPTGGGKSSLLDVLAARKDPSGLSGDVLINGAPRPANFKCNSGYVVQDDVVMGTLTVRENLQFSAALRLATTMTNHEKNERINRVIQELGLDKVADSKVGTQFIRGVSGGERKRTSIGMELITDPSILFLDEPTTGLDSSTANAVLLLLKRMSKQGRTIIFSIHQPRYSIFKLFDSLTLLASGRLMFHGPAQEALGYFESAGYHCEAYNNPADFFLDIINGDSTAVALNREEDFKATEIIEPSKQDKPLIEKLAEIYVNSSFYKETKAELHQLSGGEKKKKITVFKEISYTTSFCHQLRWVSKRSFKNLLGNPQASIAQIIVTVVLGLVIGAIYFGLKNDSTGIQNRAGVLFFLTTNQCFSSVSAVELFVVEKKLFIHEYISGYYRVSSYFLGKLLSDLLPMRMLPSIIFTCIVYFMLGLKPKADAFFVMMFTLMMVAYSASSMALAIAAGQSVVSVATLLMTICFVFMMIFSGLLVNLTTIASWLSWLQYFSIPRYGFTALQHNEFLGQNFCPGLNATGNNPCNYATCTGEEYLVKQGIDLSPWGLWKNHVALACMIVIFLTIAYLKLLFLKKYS
The data set is described as follows: BCRP inhibition, rosuvastatin transport in HEK293 membrane vesicles. It counts as biochemical. As to conditions: R = I gut/IC50, FDA cut-off ≥ 10. How it is done:
Membrane vesicles, 5 μL (7.5 μg of total protein), prepared as previously reported, were aliquoted to wells of a conical‐shaped 96‐well plate. The plate was incubated for 10 min at +37°C before the initiation of transport by adding 25 μL of TS‐buffer (10 mM Tris, 250 mM sucrose, pH adjusted to 7.4 with HEPES) containing magnesium chloride (10 mM final in the reaction), adenosine triphosphate (ATP) or adenosine monophosphate (AMP), 4 mM final in the reaction, and the transporter substrate and inhibitor. Each experiment included triplicate samples for both ATP and AMP samples. The concentrations of rosuvastatin and N‐methyl‐quinidine were 1 μM in the BCRP and P‐gp vesicle inhibition assays, respectively. The transport reaction times were 1 and 2 min for BCRP and P‐gp, respectively. […] The transport reactions were quenched by adding 200 μL of cold TS‐buffer to each well and transferring the samples to a 96‐multiwell 1.0 μm glass fiber filter plate (Merck Millipore, Darmstadt, Germany) kept under vacuum. […]
For the inhibition data analysis, the average of measured concentrations in the control cells was subtracted from the average of measured concentrations in transporter‐expressing cells for each inhibitor concentration and then normalized to the vehicle sample that represents 100% transport activity. […]

Data set [2] has as its target T2, OAT4 (Homo sapiens, UniProt Q9NSA0).
T2 construct: expressed in transfected cells; host or cells: HEK293 (recombinant baculovirus-mediated transduction)
T2 sequence (Q9NSA0 1-550): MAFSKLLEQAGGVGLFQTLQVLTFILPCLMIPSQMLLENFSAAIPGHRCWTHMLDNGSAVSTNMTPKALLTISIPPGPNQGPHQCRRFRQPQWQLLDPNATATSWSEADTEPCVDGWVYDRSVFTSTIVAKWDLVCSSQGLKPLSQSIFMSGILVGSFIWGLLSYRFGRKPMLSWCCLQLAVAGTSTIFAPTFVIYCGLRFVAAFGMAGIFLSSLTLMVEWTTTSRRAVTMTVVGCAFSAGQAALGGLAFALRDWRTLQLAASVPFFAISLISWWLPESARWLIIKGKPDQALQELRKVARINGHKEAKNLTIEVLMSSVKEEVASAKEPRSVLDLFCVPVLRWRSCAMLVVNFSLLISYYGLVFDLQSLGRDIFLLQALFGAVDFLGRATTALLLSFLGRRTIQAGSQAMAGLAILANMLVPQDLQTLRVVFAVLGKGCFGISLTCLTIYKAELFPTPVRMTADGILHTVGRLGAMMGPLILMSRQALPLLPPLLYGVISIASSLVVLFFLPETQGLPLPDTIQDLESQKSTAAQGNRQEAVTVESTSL
The data set is described as follows: Uptake transport assay in OAT4-expressing HEK293 cells. The class given is cell-based. Particulars: for transport by OAT4: 2 and 50 μM, 10 min; for Vmax (pmol/106 cells/min) OAT4: uptake, 2 min. How it is done:
The human transporters OATP1B1, OATP1B3, OATP2B1, and OAT1‐OAT4 and a negative control protein (enhanced yellow fluorescent protein, eYFP) were transiently expressed in human embryonic kidney 293 (HEK293) cells by recombinant baculovirus‐mediated transduction. Baculoviruses carrying human genes for the transporters were prepared as reported previously. HEK293 cells were cultured in DMEM containing 10% fetal bovine serum at 37°C and 5% CO2 and passaged two to three times per week. For the transport studies, 0.05 × 10^6 cells for 48‐well plates (OATPs) or 0.06 × 10^6 cells for 24‐well plates (OATs) were seeded onto cell‐culture treated well plates coated with poly‐D‐lysine. After 1 day, cells were transduced to produce recombinant proteins by changing media to DMEM containing 30 μL (48‐well plates) or 60 μL (24‐well plates) of recombinant baculovirus and 3 mM (OATs) or 5 mM (OATPs) sodium butyrate in a total media volume of 500 μL. The cells were cultured for a further 2 days before the transport assays.
For the transport studies, media were removed and cells were washed once with warm transport uptake buffer (TP‐buffer—pH 7.4 HBSS with 25 mM HEPES and 4 mM sodium bicarbonate). Each experiment included triplicate (OATP) or duplicate (OAT) samples for every test condition. The uptake was started by removing liquid from wells and applying warm TP‐buffer (200 μL for 24‐well plates or 125 μL for 48‐well plates) containing a test compound to cells. Transport assays were terminated after a pre‐specified incubation time (reported in figure legends) by removing substrate solution and washing cells three times with cold TP‐buffer (300 μL for 48‐well plates and 400 μL for 24‐well plates). For the liquid chromatography mass spectrometry (LC–MS) analysis, compounds were extracted from cells with 125 μL (48‐well plates) or 250 μL (24‐well plates) of an ultrapure‐water solution containing 75% methanol and 0.1% formic acid, shaking at 250 RPM for 30 min. […] Samples were transferred to well plates, centrifuged at 3000 g for 30 min, and transferred to a new well plate for the analysis.
Equation (2) (the Michaelis–Menten equation) was fit to the transport kinetic assay data. […] (2) Uptake=Vmax×S/Km+S

Marks after values point to notes of the source that are not given here.

Take `Cc1onc(-c2c(Cl)cccc2Cl)c1C(=O)N[C@@H]1C(=O)N2[C@@H]1SC(C)(C)[C@@H]2C(=O)O` [Dicloxacillin]: the “Calculated R-value BCRP” value in data set [1] is 51 ^b. Further, in data set [2], the “transport by OAT4” value is reported as “transported” and the “Vmax (pmol/106 cells/min) OAT4” value stood at 239 pmol/106 cells/min.
As for `Cc1onc(-c2c(F)cccc2Cl)c1C(=O)N[C@@H]1C(=O)N2[C@@H]1SC(C)(C)[C@@H]2C(=O)O` [Flucloxacillin], in data set [1], the “Calculated R-value BCRP” value is reported as 23 ^b. In data set [2], the “transport by OAT4” value is on record as “transported” and the “Vmax (pmol/106 cells/min) OAT4” value was determined as 245 pmol/106 cells/min.

Source of the values: paper PMC12865225 (Clinical and Translational Science, 2026).
